In PubChem BioAssay (NCI) one finds GI50 and TGI data, which are given here for 13 compounds.

Among the test systems are SF-539 CNS; PC-3 prostate; LOX IMVI melanoma; SW-620 colon; M14 melanoma; SF-295 CNS; HCT-116 colon; HT29 colon; K-562 leukemia; MDA-MB-435.
What all share (assay): growth of human tumour cells (NCI), 48 h

“And” between values parts separate entries of the source, which are not always exact repeats. Identical values can stand only once.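 Compound exposure: 48 hours, 5 concentrations, 96-well plates. The concentration for 50% growth inhibition is given as GI50. TGI: concentration producing complete growth inhibition.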

Consider `N#CC1c2ccccc2-c2ccccc2N1C(=O)c1ccccc1` (stereo not given), for which the GI50 is 2.29 µM with SF-539 CNS; 6.86 µM with PC-3 prostate; 2.81 µM with LOX IMVI melanoma; 0.585 µM in the test on SW-620 colon; 1.47 µM with M14 melanoma; 2.63 µM with SF-295 CNS. For the same compound, the GI50 was 1.74 µM with HCT-116 colon, 1.1 µM in the test on HT29 colon, 1.04 µM in the test on K-562 leukemia and 0.255 µM in the test with MDA-MB-435. For the same compound, the TGI was 7.05 µM with SF-539 CNS; greater than 100 µM with PC-3 prostate; greater than 94.3 µM in the test on LOX IMVI melanoma; greater than 100 µM with SW-620 colon; 7.1 µM with M14 melanoma; greater than 100 µM in the test with SF-295 CNS. The TGI in the test with HCT-116 colon is 9.22 µM; with HT29 colon, greater than 25.3 µM; in the test with MDA-MB-435, 0.761 µM.

As to `COc1cc2oc3ccccc3c(=O)c2cc1CSc1ccccc1N`, the TGI with SF-539 CNS, in the test on PC-3 prostate, in the test on LOX IMVI melanoma, with SW-620 colon, in the test on M14 melanoma and in the test on SF-295 CNS was greater than 100 µM each time. The TGI in the test on HCT-116 colon was greater than 100 µM; in the test with HT29 colon, greater than 100 µM; in the test with K-562 leukemia, greater than 100 µM; with MDA-MB-435 it was 8.93 µM.

Consider `O=C(Oc1c(I)ccccc1=O)c1ccc([N+](=O)[O-])cc1`, for which the TGI came to 37.6 µM with SF-539 CNS; 75.1 µM in the test on PC-3 prostate; 83.2 µM in the test on LOX IMVI melanoma; 83.6 µM with SW-620 colon; 73.3 µM in the test on M14 melanoma; 62.1 µM with SF-295 CNS. The TGI is greater than 100 µM in the test on HCT-116 colon, 24.8 µM in the test on HT29 colon, 61.9 µM in the test on K-562 leukemia and 42.4 µM with MDA-MB-435.

In the case of `CCN(CC)CCOc1ccc(/C=C2\C[C@H]3[C@@H]4CC=C5C[C@@H](OC(C)=O)CC[C@]5(C)[C@H]4CC[C@]3(C)[C@H]2OC(C)=O)cc1OC`, the GI50 in the test with SF-539 CNS was 8.59 µM; in the test with PC-3 prostate it was 7.68 µM; with LOX IMVI melanoma it was 18.1 µM; in the test on SW-620 colon, 16.8 µM; in the test with M14 melanoma it was 7.62 µM; in the test with SF-295 CNS, 12.2 µM. In addition, the GI50 with HCT-116 colon was 9.76 µM; in the test with HT29 colon, 14.8 µM; in the test with K-562 leukemia, 8.17 µM; with MDA-MB-435 it was 11 µM. The TGI in the test on SF-539 CNS was 16 µM; in the test with PC-3 prostate it was 21.3 µM; in the test on LOX IMVI melanoma it was greater than 50 µM; in the test on SW-620 colon, greater than 50 µM; with M14 melanoma, 17.2 µM; with SF-295 CNS it was 24.3 µM. Further, the TGI in the test with HCT-116 colon is 18.6 µM; in the test on HT29 colon, greater than 50 µM; with K-562 leukemia, 28.4 µM; in the test with MDA-MB-435 it was 21.7 µM.

As to `O=C1c2c(O)cccc2C(C(=O)CCCCC(=O)C2c3cccc(O)c3C(=O)c3c(O)cccc32)c2cccc(O)c21`, the GI50 was 1.01 µM in the test with SF-539 CNS; 1.56 µM in the test with LOX IMVI melanoma; 1.73 µM with SW-620 colon; 1.75 µM with M14 melanoma; 0.672 µM with SF-295 CNS; 1.93 µM with HCT-116 colon. For the same compound, the GI50 in the test on HT29 colon was 1.77 µM; in the test with K-562 leukemia it was 1.21 µM. For the same compound, the TGI with SF-539 CNS was 0.873 µM and 2.02 µM; with PC-3 prostate, 0.458 µM; with LOX IMVI melanoma, 2.74 µM and 5.08 µM; with SW-620 colon, 10.1 µM and 7.17 µM; in the test with M14 melanoma, 2.54 µM and 5.03 µM; with SF-295 CNS, 4.57 µM and 1.49 µM. The TGI was 2.1 µM and 6.82 µM in the test on HCT-116 colon; 1.67 µM and 5.67 µM in the test on HT29 colon; 7.66 µM and 2.49 µM with K-562 leukemia; 3.01 µM with MDA-MB-435.

Turning to `CN1C(=O)c2cc(Cl)nc3c(NC(=O)c4cccc(Cl)c4)c(Cl)c(NC(=O)c4cccc(Cl)c4)c1c23`, the GI50 with SF-539 CNS was 1.67 µM; in the test with PC-3 prostate, 1.93 µM; in the test with LOX IMVI melanoma it was 1.21 µM; with SW-620 colon, 1.78 µM; with M14 melanoma it was 1.47 µM; in the test on SF-295 CNS, 2.87 µM. The GI50 was 1.31 µM with HCT-116 colon, 1.97 µM in the test with HT29 colon, 1.01 µM in the test with K-562 leukemia and 1.7 µM with MDA-MB-435. The TGI came to 3.39 µM in the test on SF-539 CNS; 3.99 µM in the test with PC-3 prostate; 2.58 µM with LOX IMVI melanoma; 3.93 µM with SW-620 colon; 3.03 µM with M14 melanoma; 11.6 µM in the test on SF-295 CNS. For the same compound, the TGI in the test on HCT-116 colon is 2.69 µM; in the test on HT29 colon it was 4.05 µM; with K-562 leukemia, 2.57 µM; in the test with MDA-MB-435, 3.2 µM.

`COc1cc[nH]c1/C=C1\C(=O)Nc2ccc(F)c(C#CC3(O)CCOCC3)c21`: the GI50 in the test on SF-539 CNS is 0.489 µM; with PC-3 prostate it was 0.669 µM; in the test on LOX IMVI melanoma, 0.537 µM; in the test with SW-620 colon, 0.619 µM; in the test with M14 melanoma, 0.664 µM; in the test on SF-295 CNS it was 0.849 µM. The GI50 was 0.538 µM in the test with HCT-116 colon, 0.501 µM in the test on HT29 colon, 1.36 µM in the test with K-562 leukemia and 0.57 µM in the test on MDA-MB-435. In addition, the TGI in the test with SF-539 CNS is 1.03 µM; in the test on PC-3 prostate, 6.52 µM; with LOX IMVI melanoma, 1.77 µM; in the test with SW-620 colon, greater than 8.38 µM; in the test with M14 melanoma it was 4.28 µM; in the test on SF-295 CNS it was 16.4 µM. In addition, the TGI is greater than 25 µM in the test on HCT-116 colon, 2.81 µM with HT29 colon, greater than 25 µM in the test with K-562 leukemia and 4.05 µM in the test on MDA-MB-435.

For the compound `COc1ccc(S(=O)(=O)N/N=C/C(=O)O)cc1`, the TGI in the test on SF-539 CNS is 1080 µM; with PC-3 prostate, greater than 1250 µM; in the test with LOX IMVI melanoma, 733 µM; in the test on SW-620 colon it was 1230 µM; in the test with M14 melanoma it was greater than 1250 µM; in the test with SF-295 CNS it was 1070 µM. Moreover, the TGI was 1030 µM in the test on HCT-116 colon, greater than 580 µM with HT29 colon, greater than 1170 µM in the test on K-562 leukemia and greater than 1250 µM in the test on MDA-MB-435.

For the compound `O=C1C=C(Nc2cccc(Br)c2)c2ccccc2C1=O`, the GI50 in the test on SF-539 CNS was 1.93 µM; in the test with PC-3 prostate it was 8.68 µM; in the test on LOX IMVI melanoma, 4.35 µM; in the test on SW-620 colon, 0.482 µM; in the test with M14 melanoma it was 0.611 µM; in the test on SF-295 CNS it was 3.21 µM. In addition, the GI50 is 10.6 µM in the test on HCT-116 colon, 69.1 µM in the test with HT29 colon, 1.52 µM in the test with K-562 leukemia and 0.19 µM with MDA-MB-435. For the same compound, the TGI in the test with SF-539 CNS was 4.56 µM; in the test on PC-3 prostate, greater than 100 µM; in the test on LOX IMVI melanoma, 21.5 µM; in the test with SW-620 colon it was greater than 100 µM; in the test on M14 melanoma, 13.1 µM; in the test on SF-295 CNS, 15.1 µM. Besides, the TGI was 44.5 µM in the test with HCT-116 colon, greater than 100 µM in the test with HT29 colon, 18.3 µM in the test on K-562 leukemia and 0.484 µM in the test on MDA-MB-435.

`O=C1c2cccnc2C(=O)c2c1c(C(=O)OCCCN1CCOCC1)c1ccccn21`: the GI50 with SF-539 CNS was less than 0.01 µM; in the test on PC-3 prostate, 0.0147 µM; in the test with LOX IMVI melanoma, less than 0.01 µM; with SW-620 colon, less than 0.01 µM; in the test with M14 melanoma, less than 0.01 µM; with SF-295 CNS, 0.0167 µM. Besides, the GI50 in the test on HCT-116 colon is less than 0.01 µM; with HT29 colon, 0.354 µM; in the test on K-562 leukemia, less than 0.0124 µM; in the test on MDA-MB-435, less than 0.0118 µM. The TGI in the test with SF-539 CNS stood at 0.0372 µM; in the test with PC-3 prostate, 4.94 µM; in the test on LOX IMVI melanoma it was 0.0152 µM; with SW-620 colon, 1.75 µM; in the test on M14 melanoma, 0.0699 µM; with SF-295 CNS, 0.0698 µM. For the same compound, the values for the TGI in the test with HCT-116 colon, in the test with HT29 colon and in the test with MDA-MB-435 were 0.184 µM, 2.18 µM and 2.06 µM, respectively.

For the compound `Cc1c(C(C)C)cc(OCCO)cc1C(C)C`, the TGI in the test with SF-539 CNS is greater than 100 µM; in the test with PC-3 prostate, 96.2 µM; in the test with LOX IMVI melanoma, 63.4 µM; in the test on SW-620 colon, greater than 100 µM; in the test with M14 melanoma, greater than 100 µM; in the test on SF-295 CNS, greater than 100 µM. Further, the TGI is greater than 100 µM in the test with HCT-116 colon, 81.1 µM in the test with HT29 colon, greater than 100 µM in the test with K-562 leukemia and greater than 100 µM in the test with MDA-MB-435.

`COC(=O)[C@H](Cc1ccccc1)NC(=O)c1csc([C@@H](C[C@H](C(C)C)N(C)C(=O)[C@@H](NC(=O)[C@H]2CCCCN2C)C2CC2)OC(C)=O)n1`: the GI50 is 0.0376 µM in the test with SF-539 CNS; 0.0509 µM with PC-3 prostate; 0.0403 µM in the test on LOX IMVI melanoma; 0.0167 µM with SW-620 colon; 0.0328 µM in the test with M14 melanoma; 0.0334 µM with SF-295 CNS. For the same compound, the GI50 with HCT-116 colon was 0.0197 µM; in the test with HT29 colon it was 0.0175 µM; with K-562 leukemia, 0.0118 µM; in the test with MDA-MB-435, 0.00884 µM. In addition, the TGI was 0.194 µM with SF-539 CNS; greater than 25 µM in the test with PC-3 prostate; greater than 25 µM with LOX IMVI melanoma; greater than 25 µM in the test on SW-620 colon; greater than 25 µM in the test on SF-295 CNS; greater than 25 µM in the test on HCT-116 colon. The results for the TGI with HT29 colon, with K-562 leukemia and in the test on MDA-MB-435 were greater than 25 µM, greater than 25 µM and 0.0841 µM, respectively.

For the compound `O=C1c2ccccc2-c2cc3ccccc3c(=O)n21`, the TGI with SF-539 CNS, in the test on PC-3 prostate, in the test on LOX IMVI melanoma, in the test with SW-620 colon, in the test with M14 melanoma and with SF-295 CNS was greater than 100 µM each time. For the same compound, the TGI in the test on HCT-116 colon, with HT29 colon, in the test with K-562 leukemia and in the test with MDA-MB-435 was greater than 100 µM throughout.
